Results: PubChem BioAssay AID328 (DTP/NCI, 2004)
“And” between values parts separate entries of the source, which are not always exact repeats. Identical values can stand only once. Inconclusive results and toxic doses are left out.

System: BDF1 mice, P388 leukemia ip, median survival T/C
Test: NCI In Vivo Anticancer Drug Screen. Data for tumor model P388 Leukemia (intraperitoneal) in B6D2F1 (BDF1) mice
Details: endpoint: median survival time, higher = longer survival
Method in brief: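 Survival ratio, drug arm over vehicle arm, in mice with a transplanted tumour.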

[1] = dose: 50.0 mg/kg/injection, schedule: Q01DX009 (ip), vehicle: saline with Tween-80
[2] = dose: 100.0 mg/kg/injection, schedule: Q01DX009 (ip), vehicle: saline with Tween-80
[3] = dose: 200.0 mg/kg/injection, schedule: Q01DX009 (ip), vehicle: saline with Tween-80
[4] = dose: 50.0 mg/kg/injection, schedule: Q01DX009 (ip), vehicle: saline
[5] = dose: 100.0 mg/kg/injection, schedule: Q01DX009 (ip), vehicle: saline
[6] = dose: 200.0 mg/kg/injection, schedule: Q01DX009 (ip), vehicle: saline
[7] = dose: 100.0 mg/kg/injection, schedule: Q04DX003 (ip), vehicle: Klucel (hydroxypropylcellulose) (HPC)
[8] = dose: 200.0 mg/kg/injection, schedule: Q04DX003 (ip), vehicle: Klucel (hydroxypropylcellulose) (HPC)
[9] = dose: 400.0 mg/kg/injection, schedule: Q01DX009 (ip), vehicle: saline with Tween-80
[10] = dose: 400.0 mg/kg/injection, schedule: Q04DX003 (ip), vehicle: Klucel (hydroxypropylcellulose) (HPC)
[11] = dose: 100.0 mg/kg/injection, schedule: Q04DX003 (ip), vehicle: saline with Tween-80
[12] = dose: 200.0 mg/kg/injection, schedule: Q04DX003 (ip), vehicle: saline with Tween-80
[13] = dose: 400.0 mg/kg/injection, schedule: Q04DX003 (ip), vehicle: saline with Tween-80
[14] = dose: 100.0 mg/kg/injection, schedule: Q01DX009 (ip), vehicle: Klucel (hydroxypropylcellulose) (HPC)
[15] = dose: 200.0 mg/kg/injection, schedule: Q01DX009 (ip), vehicle: Klucel (hydroxypropylcellulose) (HPC)
[16] = dose: 400.0 mg/kg/injection, schedule: Q01DX009 (ip), vehicle: Klucel (hydroxypropylcellulose) (HPC)
[17] = dose: 100.0 mg/kg/injection, schedule: Q04DX003 (ip), vehicle: saline
[18] = dose: 200.0 mg/kg/injection, schedule: Q04DX003 (ip), vehicle: saline
[19] = dose: 400.0 mg/kg/injection, schedule: Q04DX003 (ip), vehicle: saline

CC1=C[S+](c2ccccc2)c2cccc3cc4ccccc4c1c23 (stereo unspecified)
T/C (dose: 0.4 mg/kg/injection, schedule: Q01DX009 (ip), vehicle: saline with Tween-80): 154 % of control
T/C (dose: 0.6 mg/kg/injection, schedule: Q01DX009 (ip), vehicle: saline with Tween-80): 165 % of control
T/C (dose: 0.9 mg/kg/injection, schedule: Q01DX009 (ip), vehicle: saline with Tween-80): 154 % of control and 155 % of control
T/C (dose: 2.5 mg/kg/injection, schedule: Q01DX009 (ip), vehicle: saline with Tween-80): 116 % of control

CCCC(=O)Oc1ccc(/C=N/NC(N)=S)nc1
T/C (dose: 44.0 mg/kg/injection, schedule: Q01DX009 (ip), vehicle: saline with Tween-80): 172 % of control
T/C [1]: 173 % of control
T/C (dose: 66.0 mg/kg/injection, schedule: Q01DX009 (ip), vehicle: saline with Tween-80): 183 % of control
T/C [2]: 201 % of control and 211 % of control
T/C (dose: 150.0 mg/kg/injection, schedule: Q01DX009 (ip), vehicle: saline with Tween-80): 227 % of control
T/C [3]: 115 % of control

CCN(/C=C/C=C1C(=O)N(C)C(=O)N(C)C1=O)CC
T/C [4]: 100 % of control
T/C [5]: 102 % of control
T/C [6]: 100 % of control

O=C1Nc2ccccc2SC1C1SC(=S)N(Cc2ccccc2)C1=O (stereo unspecified)
T/C [1]: 102 % of control
T/C [2]: 86 % of control
T/C [3]: 86 % of control

Clc1cc(Cl)c(I)c(Cl)c1
T/C [2]: 92 % of control
T/C [7]: 100 % of control
T/C [3]: 89 % of control
T/C [8]: 100 % of control
T/C [9]: 96 % of control
T/C [10]: 91 % of control

COc1ccc(CC(=O)NCCN(CCN(CCO)C(=O)Cc2ccc(OC)cc2)C(=O)Cc2ccc(OC)cc2)cc1
T/C [2]: 105 % of control
T/C [11]: 120 % of control
T/C [3]: 95 % of control
T/C [12]: 100 % of control
T/C [9]: 100 % of control
T/C [13]: 105 % of control

Cc1cc2c(C(C)C)c(O)c(O)cc2c(O)c1-c1c(C)cc2c(C(C)C)c(O)c(O)cc2c1O
T/C (dose: 12.5 mg/kg/injection, schedule: Q01DX009 (ip), vehicle: saline with Tween-80): 91 % of control
T/C (dose: 25.0 mg/kg/injection, schedule: Q01DX009 (ip), vehicle: saline with Tween-80): 100 % of control
T/C [1]: 120 % of control

CC(C)Oc1ccc(C(=O)NS(=O)(=O)c2ccc(N)cc2)cc1
T/C (dose: 100.0 mg/kg/injection, schedule: Q01DX001 (ip), vehicle: saline): 113 % of control
T/C (dose: 200.0 mg/kg/injection, schedule: Q01DX001 (ip), vehicle: saline): 104 % of control
T/C (dose: 400.0 mg/kg/injection, schedule: Q01DX001 (ip), vehicle: saline): 100 % of control

COc1ccc(C2(C#N)CCCCC2)cc1
T/C [14]: 104 % of control
T/C [7]: 95 % of control
T/C [15]: 91 % of control
T/C [8]: 108 % of control
T/C [16]: 108 % of control
T/C [10]: 91 % of control

CCN(CC)C(=O)c1ccncc1
T/C [17]: 109 % of control
T/C [18]: 100 % of control

CCCCCCCCCCCC(=O)N(C)C
T/C [14]: 105 % of control
T/C [7]: 104 % of control
T/C [15]: 105 % of control
T/C [8]: 100 % of control
T/C [10]: 100 % of control

COC(=O)NC1=C(N2CC2)C(=O)C(NC(=O)OC)=C(N2CC2)C1=O
T/C (dose: 0.37 mg/kg/injection, schedule: Q01DX009 (ip), vehicle: saline): 242 % of control and 222 % of control
T/C (dose: 0.75 mg/kg/injection, schedule: Q01DX009 (ip), vehicle: saline): 252 % of control and 270 % of control

COc1ccc(C2=CCCCC2)cc1
T/C [2]: 103 % of control
T/C [11]: 104 % of control
T/C [3]: 103 % of control
T/C [12]: 104 % of control
T/C [13]: 95 % of control

COc1cc([N+](=O)[O-])c(C)cc1NCc1ccc(OC)c(OC)c1
T/C (dose: 25.0 mg/kg/injection, schedule: Q01DX009 (ip), vehicle: saline): 100 % of control
T/C [4]: 99 % of control
T/C [5]: 94 % of control

Cc1cccc(C(=O)/C=C/c2ccc(OCc3ccccc3)cc2)c1
T/C [1]: 91 % of control
T/C [2]: 91 % of control
T/C [3]: 89 % of control

Cc1ccc(NCC(O)CN2CCOCC2)cc1 (stereo unspecified)
T/C [7]: 108 % of control

Fc1ccc(C=Nc2cccc(Cl)c2)cc1
T/C [11]: 108 % of control
T/C [12]: 104 % of control
T/C [13]: 108 % of control

COc1cc(Br)c2c(c1OC)C(=O)CC2
T/C [14]: 104 % of control
T/C [7]: 100 % of control
T/C [15]: 95 % of control
T/C [8]: 91 % of control
T/C [16]: 100 % of control
T/C [10]: 95 % of control

O=C1c2cccc(O)c2C(=O)c2c(O)cccc21
T/C [17]: 100 % of control and 109 % of control
T/C [18]: 109 % of control
T/C [19]: 95 % of control and 118 % of control

CC12CCCCC1C/C(=N/NC(N)=O)CC2 (stereo unspecified)
T/C (dose: 5.0 mg/kg/injection, schedule: Q01DX001 (ip), vehicle: saline): 100 % of control
T/C (dose: 10.0 mg/kg/injection, schedule: Q01DX001 (ip), vehicle: saline): 100 % of control
T/C (dose: 20.0 mg/kg/injection, schedule: Q01DX001 (ip), vehicle: saline): 100 % of control
T/C (dose: 40.0 mg/kg/injection, schedule: Q01DX001 (ip), vehicle: saline): 104 % of control

CC(CC(Sc1ccccc1)Sc1ccccc1)CC(Sc1ccccc1)Sc1ccccc1
T/C (dose: 100.0 mg/kg/injection, schedule: Q04DX002 (ip), vehicle: saline with Tween-80): 100 % of control
T/C (dose: 200.0 mg/kg/injection, schedule: Q04DX002 (ip), vehicle: saline with Tween-80): 92 % of control
T/C (dose: 400.0 mg/kg/injection, schedule: Q04DX002 (ip), vehicle: saline with Tween-80): 106 % of control

C=CCN(CC=C)P(=O)(N1CC1)N1CC1C (stereo unspecified)
T/C (dose: 0.25 mg/kg/injection, schedule: Q04DX003 (ip), vehicle: saline): 120 % of control
T/C (dose: 0.31 mg/kg/injection, schedule: Q01DX009 (ip), vehicle: saline): 100 % of control
T/C (dose: 0.5 mg/kg/injection, schedule: Q01DX009 (ip), vehicle: saline): 156 % of control and 158 % of control
T/C (dose: 0.83 mg/kg/injection, schedule: Q01DX009 (ip), vehicle: saline): 150 % of control and 166 % of control and 173 % of control
T/C (dose: 1.65 mg/kg/injection, schedule: Q04DX003 (ip), vehicle: saline): 159 % of control
T/C (dose: 1.8 mg/kg/injection, schedule: Q01DX009 (ip), vehicle: saline): 91 % of control
T/C (dose: 2.5 mg/kg/injection, schedule: Q04DX003 (ip), vehicle: saline): 163 % of control and 190 % of control
T/C (dose: 3.75 mg/kg/injection, schedule: Q04DX003 (ip), vehicle: saline): 163 % of control
T/C (dose: 5.0 mg/kg/injection, schedule: Q04DX003 (ip), vehicle: saline): 90 % of control

O=C(O)Cn1c(C(F)(F)F)nc2nc(Cl)c(Cl)nc21
T/C [2]: 90 % of control
T/C [3]: 90 % of control
T/C [9]: 100 % of control

c1ccc(C2=C(c3ccccc3)c3cccc4cccc2c34)cc1
T/C (dose: 100.0 mg/kg/injection, schedule: Q01DX001 (ip), vehicle: Klucel (hydroxypropylcellulose) (HPC)): 95 % of control and 110 % of control
T/C [7]: 115 % of control
T/C (dose: 200.0 mg/kg/injection, schedule: Q01DX001 (ip), vehicle: Klucel (hydroxypropylcellulose) (HPC)): 105 % of control
T/C [8]: 120 % of control
T/C (dose: 400.0 mg/kg/injection, schedule: Q01DX001 (ip), vehicle: Klucel (hydroxypropylcellulose) (HPC)): 95 % of control and 105 % of control
T/C [10]: 110 % of control

O=[N+]([O-])c1ccc(Oc2cc(Cl)c(Cl)cc2Cl)c([N+](=O)[O-])c1
T/C (dose: 200.0 mg/kg/injection, schedule: Q01DX009 (ip), vehicle: saline sonified): 90 % of control
T/C (dose: 400.0 mg/kg/injection, schedule: Q01DX009 (ip), vehicle: saline sonified): 90 % of control

N#Cc1ccc(C(=O)/C=C/c2ccc(OCc3ccccc3)cc2)cc1
T/C [1]: 91 % of control
T/C [2]: 89 % of control
T/C [3]: 91 % of control

Nc1cc[c]([Hg][Cl])cc1
T/C (dose: 1.5 mg/kg/injection, schedule: Q01DX001 (ip), vehicle: Klucel (hydroxypropylcellulose) (HPC)): 110 % of control
T/C (dose: 3.0 mg/kg/injection, schedule: Q01DX001 (ip), vehicle: Klucel (hydroxypropylcellulose) (HPC)): 115 % of control
T/C (dose: 6.0 mg/kg/injection, schedule: Q01DX001 (ip), vehicle: Klucel (hydroxypropylcellulose) (HPC)): 100 % of control and 104 % of control

CCOC(=O)c1c[nH]c(=S)n1C
T/C [14]: 95 % of control
T/C [7]: 95 % of control
T/C [15]: 104 % of control
T/C [8]: 91 % of control

C#CC(C)(C)OCC(O)CCl (stereo unspecified)
T/C [4]: 95 % of control
T/C [5]: 100 % of control
T/C [17]: 91 % of control
T/C [6]: 91 % of control
T/C [18]: 100 % of control
T/C [19]: 112 % of control
